Results from ChEMBL document CHEMBL1201862, “PubChem BioAssay data set” (2004).
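Test compounds were applied to cells in 96-well plates for 48 hours at 5 doses. GI50 marks 50% less growth.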 Calls of active or inactive are those of the source. No stated cut-off is given here; in the data, active = GI50 up to about 1.1 µM and inactive = higher.

Experiments:
Test in all cases: growth of human tumour cells (NCI), 48 h
[1] = test system: 786-0
[2] = test system: A498
[3] = test system: CCRF-CEM
[4] = test system: EKVX
[5] = test system: HCT-15
[6] = test system: HOP-92
[7] = test system: K562
[8] = test system: KM12
[9] = test system: M14
[10] = test system: MDA-MB-231
[11] = test system: MDA-N
[12] = test system: OVCAR-8
[13] = test system: SF-539
[14] = test system: SK-MEL-28
[15] = test system: SK-MEL-2
[16] = test system: SK-OV-3
[17] = test system: SNB-75
[18] = test system: SR
[19] = test system: U-251
[20] = test system: UACC-62

Row | SMILES | GI50 [1] | GI50 [2] | GI50 [3] | GI50 [4] | GI50 [5] [µM] | GI50 [6] | GI50 [7] | GI50 [8] | GI50 [9] | GI50 [10] | GI50 [11] | GI50 [12] | GI50 [13] | GI50 [14] | GI50 [15] | GI50 [16] | GI50 [17] | GI50 [18] | GI50 [19] | GI50 [20]
1 | c1ccc(C2=Nc3nc4ccccc4n3C(c3ccccc3)C2)cc1 (stereo unspecified) | > 100 µM (inactive) | > 100 µM (inactive) | > 100 µM (inactive) | > 100 µM (inactive) | > 100 | 24.6 µM (inactive) | > 100 µM (inactive) | > 100 µM (inactive) | > 100 µM (inactive) | 70.6 µM (inactive) | > 100 µM (inactive) | > 100 µM (inactive) | > 100 µM (inactive) | > 100 µM (inactive) | > 100 µM (inactive) | > 100 µM (inactive) | 27.9 µM (inactive) | > 100 µM (inactive) | > 100 µM (inactive) | > 100 µM (inactive)
2 | COC(=O)[C@]1(CCC(C)=O)C(=O)C=CN([C@H](C)c2ccccc2)[C@@H]1Cc1ccc(OC)c(OCc2ccccc2)c1I | 17.8 µM (inactive) | 22.5 µM (inactive) | 25.4 µM (inactive) | 29.6 µM (inactive) | 18.9 | 6.08 µM (inactive) | 17.8 µM (inactive) | 19.2 µM (inactive) | 15 µM (inactive) | 15.8 µM (inactive) | 18.7 µM (inactive) | 22 µM (inactive) | 16.6 µM (inactive) | 35.2 µM (inactive) | 16.6 µM (inactive) | 35.4 µM (inactive) | – | 15.7 µM (inactive) | 17.3 µM (inactive) | 14.8 µM (inactive)
3 | Cc1sc2nc3n(c(=O)c2c1C)N=C(c1ccccc1)CS3 | 47.5 µM (inactive) | > 100 µM (inactive) | > 100 µM (inactive) | > 100 µM (inactive) | > 100 | > 100 µM (inactive) | > 100 µM (inactive) | > 100 µM (inactive) | – | > 100 µM (inactive) | > 100 µM (inactive) | > 100 µM (inactive) | > 100 µM (inactive) | > 100 µM (inactive) | – | > 100 µM (inactive) | > 100 µM (inactive) | > 100 µM (inactive) | > 100 µM (inactive) | > 100 µM (inactive)
4 | O=C1/C(=C/c2cccc(Cl)c2)CCCc2ccccc21 | 17.8 µM (inactive) | – | 10.2 µM (inactive) | 16.7 µM (inactive) | 17.2 | 21.1 µM (inactive) | 14.3 µM (inactive) | 17.9 µM (inactive) | 16.3 µM (inactive) | 18.2 µM (inactive) | 16.9 µM (inactive) | 18.3 µM (inactive) | 17.9 µM (inactive) | 17.3 µM (inactive) | 17.4 µM (inactive) | 45.8 µM (inactive) | 15.6 µM (inactive) | 11.6 µM (inactive) | 15.8 µM (inactive) | 13.7 µM (inactive)
5 | C=C([C@@]1(O)C[C@H]2[C@H](CCC2(OC)OC)[C@@H]2c3ccccc3O[C@@H]21)[Si](C)(C)C | > 100 µM (inactive) | > 100 µM (inactive) | – | > 100 µM (inactive) | > 100 | 1.78 µM (inactive) | 59.3 µM (inactive) | > 100 µM (inactive) | > 100 µM (inactive) | > 100 µM (inactive) | > 100 µM (inactive) | > 100 µM (inactive) | > 100 µM (inactive) | > 100 µM (inactive) | > 100 µM (inactive) | > 100 µM (inactive) | > 100 µM (inactive) | 31.9 µM (inactive) | > 100 µM (inactive) | > 100 µM (inactive)
6 | O=C1CCc2cc([N+](=O)[O-])ccc2O1 | > 100 µM (inactive) | > 100 µM (inactive) | > 100 µM (inactive) | > 100 µM (inactive) | > 100 | > 100 µM (inactive) | > 100 µM (inactive) | – | > 100 µM (inactive) | > 100 µM (inactive) | > 100 µM (inactive) | > 100 µM (inactive) | > 100 µM (inactive) | > 100 µM (inactive) | > 100 µM (inactive) | – | > 100 µM (inactive) | > 100 µM (inactive) | > 100 µM (inactive) | > 100 µM (inactive)
7 | O=Cc1c(-c2ccccc2)nc2ccccc2c1O | 49.2 µM (inactive) | 81.8 µM (inactive) | – | 85.1 µM (inactive) | 65.2 | > 100 µM (inactive) | – | 30.3 µM (inactive) | 68.2 µM (inactive) | 64.6 µM (inactive) | 15.6 µM (inactive) | 97.5 µM (inactive) | 45.6 µM (inactive) | > 100 µM (inactive) | > 100 µM (inactive) | > 100 µM (inactive) | 34.5 µM (inactive) | < 0.01 µM (active) | 74.3 µM (inactive) | 55.8 µM (inactive)
